Measurements: patent US9250241B2, “Use of micropatterned soft substrate for measuring of cell traction forces” (COMMISSARIAT A L'ENERGIE ATOMIQUE ET AUX ENERGIES …, priority 2011, dated 2016)

How the values were obtained:
[1] = test system: MCF10A expressing inducible ErbB2 receptor; assay: Cell traction force measurement by crossbow micropattern bar length on micropatterned PAA, ErbB2 inducible cells; format: cell-based, human; details: 1 μM, 48 hr before traction force measurement; FIG. 5C
Source text: When actin cables have an unpredictable spatial distribution, a given deformation cannot be directly assigned to a defined force magnitude. Indeed, forces applied on adjacent adhesion sites both affect local deformations, due to the continuous nature of the substrate. Each deformation results from local and distant forces. So the calculation of the force field is highly dependent on the spatial distribution of force application sites and the relationship between deformation and forces varies from one cell to the other. The inventors hypothesized that in cells developing a reproducible architecture and a controlled pattern of force application, a given local deformation could be assigned to a defined value of the contractile force. […] When the deformation was measured along the shortest, and therefore most contracted, cell axis, the correlation was improved (FIG. 4C). […] On the crossbow, a single image acquisition was sufficient to measure the bar length and read the corresponding average cell traction force using the calibration curve (FIG. 4F). […]
The culture of MCF10A cells and the generation of ΔCK2β cell line was described previously (Deshiere et al (2008) Mol Cell Biochem 316(1-2):107-113). […] Substrate relaxation was assessed by detaching cells with trypsin. […]

MCF10A cells = assay: Cell traction force measurement by crossbow micropattern bar length on micropatterned PAA; format: cell-based, human
Procedure: Non-tumorigenic human epithelial cells from the mammary gland, MCF10A, were plated on the micropatterned PAA substrates. Cells specifically attached to the fibronectin coated micropatterns since non-exposed PAA regions prevented protein adsorption (FIG. 2D). The effect of micropattern geometry on cell traction forces orientation was tested on various shapes: disc, pacman and crossbow (FIG. 3A). Spread cells exerted traction forces on the micropattern that could be measured by looking at the displacement of fluorescent beads embedded in the PAA gel (see FIG. 3B and Material and Methods). Particle Image Velocimetry followed by individual particle tracking were used to measure bead displacements (Marganski et al (2003) Methods Enzymol 361:197-211; Sabass et al (2008) Biophys J 94(1):207-220). Force fields were calculated from the bead displacement fields by using the Fourier transform traction cytometry (Sabass et al, supra; Butler et al (2002) Am J Physiol Cell Physiol 282(3):C595-605). Force fields exerted by individual cells were overlaid and averaged to quantify their reproducibility (FIG. 3C,D). On homogeneously coated regions cells developed forces that were randomly distributed from one cell to the other. In cells constrained on disc shaped micropatterns, forces were still randomly oriented but their magnitudes were lowered due to reduced cell spreading. In cells constrained on pacman shaped micropatterns, forces distribution was geometrically biased due to enhanced cell contraction above non adhesive regions. […] Importantly, most of the traction forces were reproducibly oriented upward, along the straight adhesive bar on the extremity of which the inventors measured the highest pressure (FIG. 3D). […]
When actin cables have an unpredictable spatial distribution, a given deformation cannot be directly assigned to a defined force magnitude. […] When the deformation was measured along the shortest, and therefore most contracted, cell axis, the correlation was improved (FIG. 4C). […]

Molecule: CCC(C)(C)C(=O)C(=O)N1CCCC[C@H]1C(=O)O[C@H](CCc1ccc(OC)c(OC)c1)c1cccc(OCC(=O)NCCNC(=O)COc2cccc([C@@H](CCc3ccc(OC)c(OC)c3)OC(=O)[C@@H]3CCCCN3C(=O)C(=O)C(C)(C)CC)c2)c1 [AP1510]
- level of cell contraction versus WT cells [1]: no significant changes in the level of cell contraction

Molecule: Cc1ccc2c(c1)C(=O)C1(O)CCN(c3ccccc3)C1=N2 (stereo not shown) [Blebbistatin]
- force magnitude decrease over time (MCF10A cells; 50 μM, single cell, FIG. 5B): follows a single exponential decay
- force inhibition profile in response to increasing dose (MCF10A cells; increasing drug concentrations successively applied to 6 cells, crossbow bar length, FIG. 5A): matched the myosin II inhibition profile

Molecule: TGFb1: known to induce epithelial to mesenchymal transition (R&D systems)
- level of cell contraction versus WT cells (crossbow shortening) (MCF10A cells; 2 ng/mL for 2 days before plating, FIG. 5C): significantly higher level of cell contraction
